The values below come from paper PMC8286840, “Identifying SARS-CoV-2 antiviral compounds by screening for small molecule inhibitors of Nsp3 papain-like protease” (Biochemical Journal, 2021).

Test [1] deals with T1, SARS-CoV-2 PLpro (nsp3 1564–1878) (Severe acute respiratory syndrome coronavirus 2, UniProt P0DTD1). Description: biochemical. Also noted: FRET-quenched peptide (Pro3) cleavage by PLpro, 10 min pre-incubation, slope over 20 min, normalised to no-compound control. The note with it: low concentration screen, read-out: % of control remaining.
Test [2] concerns the target T1, SARS-CoV-2 PLpro (nsp3 1564–1878). Description: biochemical. Also noted: FRET-quenched peptide (Pro3) cleavage by PLpro, 10 min pre-incubation, slope over 20 min, normalised to no-compound control. The conditions noted are these: high concentration screen, read-out: % of control remaining.

The structures appear in SMILES notation. Structures can show the parent of a compound that is named as a salt. Where two headings read alike, the source gives them in different places.

With `Cc1cc(C)nc(NS(=O)(=O)c2ccc(N)cc2)n1` [Sulfamethazine], the remaining activity at 1.25 µM worked out at 96.7% in test [1] (Well no.=4940) and 99.7% in test [1] (Well no.=7456). For the same molecule, the remaining activity at 3.75 µM in test [2] (Well no.=4940) is 95.8%; in test [2] (Well no.=7456), 99.2%.
As for `Cc1nnc(NS(=O)(=O)c2ccc(N)cc2)s1` [Sulfamethizole], the remaining activity at 1.25 µM in test [1] (Well no.=7444) amounted to 94.6%; in test [1] (Well no.=8179), 108%. Also, the values for the remaining activity at 3.75 µM in test [2] (Well no.=7444) and in test [2] (Well no.=8179) were 92.4% and 106%, respectively.
Turning to `Cc1cc(NS(=O)(=O)c2ccc(N)cc2)no1` [Sulfamethoxazole], the remaining activity at 1.25 µM in test [1] (Well no.=4662) amounted to 102%. Besides, the figures for the remaining activity at 3.75 µM in test [2] (Well no.=4662) and in test [2] (Well no.=7398) were 98.1% and 107%, respectively.
As to `COc1ccc(NS(=O)(=O)c2ccc(N)cc2)nn1` [Sulfamethoxypyridazine], the remaining activity at 1.25 µM in test [1] (Well no.=7354) worked out at 101%; in test [1] (Well no.=8613), 94.6%. The results for the remaining activity at 3.75 µM in test [2] (Well no.=7354) and in test [2] (Well no.=8613) were 99.7% and 94.7%, respectively.
For `COc1cc(NS(=O)(=O)c2ccc(N)cc2)ncn1` [Sulfamonomethoxine], in test [1] (Well no.=7544), the remaining activity at 1.25 µM came to 98.1%. Also, in test [2] (Well no.=7544), the remaining activity at 3.75 µM was 98.5%.
Take `Nc1ccc(S(N)(=O)=O)cc1` [Sulfanilamide]: the remaining activity at 1.25 µM was determined as 106% in test [1] (Well no.=4620) and 94.6% in test [1] (Well no.=7540). The remaining activity at 3.75 µM in test [2] (Well no.=4620) came to 108%; in test [2] (Well no.=7540), 93.1%.
Turning to `Nc1ccc(S(=O)(=O)Nc2ccnn2-c2ccccc2)cc1` [Sulfaphenazole], the remaining activity at 1.25 µM in test [1] (Well no.=1404) is 104%; in test [1] (Well no.=8418), 85.5%. The remaining activity at 3.75 µM came out at 99.3% in test [2] (Well no.=1404) and 85.2% in test [2] (Well no.=8418).
For the molecule `Nc1ccc(S(=O)(=O)Nc2cnc3ccccc3n2)cc1` [Sulfaquinoxaline sodium salt], the remaining activity at 1.25 µM in test [1] (Well no.=8124) turned out to be 103%. Moreover, the remaining activity at 3.75 µM in test [2] (Well no.=8124) came out at 100%.
For `O=C(O)c1cc(/N=N/c2ccc(S(=O)(=O)Nc3ccccn3)cc2)ccc1O` [Sulfasalazine], the remaining activity at 1.25 µM in test [1] (Well no.=2293) is 96.4%; in test [1] (Well no.=7312), 101%. The results for the remaining activity at 3.75 µM in test [2] (Well no.=2293) and in test [2] (Well no.=7312) were 97.5% and 101%, respectively.
Turning to `Nc1ccc(S(=O)(=O)Nc2nccs2)cc1` [Sulfathiazole (sodium)], the remaining activity at 1.25 µM in test [1] (Well no.=7404) came to 104%. The remaining activity at 3.75 µM in test [2] (Well no.=7404) is 102%.
Turning to `Nc1ccc(S(=O)(=O)Nc2nccs2)cc1` [Sulfathiazole], the remaining activity at 1.25 µM in test [1] (Well no.=4937) was determined as 98.9%. Moreover, in test [2] (Well no.=4937), the remaining activity at 3.75 µM amounted to 95.6%.
As for `Cc1noc(NS(=O)(=O)c2ccc(N)cc2)c1C` [Sulfisoxazole], the remaining activity at 1.25 µM in test [1] (Well no.=4664) turned out to be 95.8%; in test [1] (Well no.=7548), 104%; in test [1] (Well no.=8283), 97.8%. Moreover, the remaining activity at 3.75 µM in test [2] (Well no.=4664) came out at 97.2%; in test [2] (Well no.=7548) it was 101%; in test [2] (Well no.=8283), 97.6%.
For the molecule `CSc1ccc(/C=C2/C(C)=C(CC(=O)O)c3cc(F)ccc32)cc1` [Sulindac sulfide], the remaining activity at 1.25 µM in test [1] (Well no.=6089) turned out to be 96.2%. For the same molecule, in test [2] (Well no.=6089), the remaining activity at 3.75 µM came out at 93.8%.
Regarding `CC1=C(CC(=O)O)c2cc(F)ccc2/C1=C\c1ccc(S(C)(=O)=O)cc1` [Sulindac sulfone], in test [1] (Well no.=1500), the remaining activity at 1.25 µM came to 95.3%. The remaining activity at 3.75 µM in test [2] (Well no.=1500) amounted to 96.6%.
Take `CC1=C(CC(=O)O)c2cc(F)ccc2/C1=C\c1ccc([S+](C)[O-])cc1` (stereo not shown) [Sulindac]: the remaining activity at 1.25 µM came to 102% in test [1] (Well no.=1270) and 98.1% in test [1] (Well no.=1756). The values for the remaining activity at 3.75 µM in test [2] (Well no.=1270) and in test [2] (Well no.=1756) were 105% and 96.7%, respectively.
For the molecule `CCN1CCCC1CNC(=O)c1cc(S(N)(=O)=O)ccc1OC` (stereo not shown) [Sulpiride], the remaining activity at 1.25 µM in test [1] (Well no.=6423) stood at 99.1%. Further, the remaining activity at 3.75 µM in test [2] (Well no.=6423) came out at 97.9%.
As for `CN[C@@H]1Cc2cccc3[nH]c(=O)n(c23)C1` [Sumanirole maleate], the remaining activity at 1.25 µM in test [1] (Well no.=5386) worked out at 99.1%. Moreover, in test [2] (Well no.=5386), the remaining activity at 3.75 µM came out at 104%.
On to `CNS(=O)(=O)Cc1ccc2[nH]cc(CCN(C)C)c2c1` [Sumatriptan (succinate)], for which the remaining activity at 1.25 µM in test [1] (Well no.=6379) was 104%. The remaining activity at 3.75 µM in test [2] (Well no.=6379) was 91%.
On to `CNS(=O)(=O)Cc1ccc2[nH]cc(CCN(C)C)c2c1` [Sumatriptan Succinate], for which the remaining activity at 1.25 µM in test [1] (Well no.=2085) was 96.9%. In test [2] (Well no.=2085), the remaining activity at 3.75 µM turned out to be 97.6%.
For `CCN(CC)CCNC(=O)c1c(C)[nH]c(/C=C2\C(=O)Nc3ccc(F)cc32)c1C` [Sunitinib], the remaining activity at 1.25 µM in test [1] (Well no.=2703) stood at 102%. Besides, in test [2] (Well no.=2703), the remaining activity at 3.75 µM turned out to be 100%.
As for `O=S(=O)(O)c1ccc(N=Nc2c(O)ccc3cc(S(=O)(=O)O)ccc23)cc1` [Sunset Yellow FCF], the remaining activity at 1.25 µM in test [1] (Well no.=8500) amounted to 95.1%. In addition, the remaining activity at 3.75 µM in test [2] (Well no.=8500) was 92.1%.
With `CCOCC(O)COc1ccc(NC(=O)CC[S+](C)C)cc1` (stereo not shown) [Suplatast tosylate], in test [1] (Well no.=4714), the remaining activity at 1.25 µM came to 107%. Besides, in test [2] (Well no.=4714), the remaining activity at 3.75 µM was found to be 106%.
As for `Cc1ccc(C(=O)Nc2ccc(S(=O)(=O)O)c3cc(S(=O)(=O)O)cc(S(=O)(=O)O)c23)cc1NC(=O)c1cccc(NC(=O)Nc2cccc(C(=O)Nc3cc(C(=O)Nc4ccc(S(=O)(=O)O)c5cc(S(=O)(=O)O)cc(S(=O)(=O)O)c45)ccc3C)c2)c1` [Suramin (sodium salt)], the remaining activity at 1.25 µM in test [1] (Well no.=8141) was determined as 105%. Also, the remaining activity at 3.75 µM in test [2] (Well no.=8141) amounted to 98.9%.
With `Cc1ccc(C(=O)Nc2ccc(S(=O)(=O)O)c3cc(S(=O)(=O)O)cc(S(=O)(=O)O)c23)cc1NC(=O)c1cccc(NC(=O)Nc2cccc(C(=O)Nc3cc(C(=O)Nc4ccc(S(=O)(=O)O)c5cc(S(=O)(=O)O)cc(S(=O)(=O)O)c45)ccc3C)c2)c1` [Suramin], the remaining activity at 1.25 µM in test [1] (Well no.=1622) came out at 99.2%. The remaining activity at 3.75 µM in test [2] (Well no.=1622) amounted to 96.7%.
As for `O[C@H]1[C@H]2[C@H](O)CCCN2C[C@H]1O` [Swainsonine], the remaining activity at 1.25 µM in test [1] (Well no.=3176) was 97.3%. The remaining activity at 3.75 µM in test [2] (Well no.=3176) was 100%.
For `O=[N+]([O-])/C=C/c1ccc2c(c1)OCO2` [Syk Inhibitor III], the remaining activity at 1.25 µM in test [1] (Well no.=2599) worked out at 97.9%. Besides, the remaining activity at 3.75 µM in test [2] (Well no.=2599) stood at 97.6%.
`NCCNc1ncc(C(N)=O)c(Nc2cccc(C(F)(F)F)c2)n1` [Syk Inhibitor II]: the remaining activity at 1.25 µM in test [1] (Well no.=2597) was 99.7%. Moreover, in test [2] (Well no.=2597), the remaining activity at 3.75 µM turned out to be 101%.
